Key:
[1] = system: pirenzepine-induced amnesia; test: Pirenzepine-induced amnesia, step-through type passive avoidance; format: in vivo, Std:ddY strain male mice; conditions: oral; for Reaction latency Mean ± S.E.: 30 or 60 minutes before acquisition trial, pirenzepine-treated mice; for Improvement rate: pirenzepine-induced amnesia
Excerpt: Testing on the pirenzepine-induced amnesia
For the experiment animals, Std:ddY strain male mice with body weight of 24 to 34 g (age in week: 5-6) (Nippon SLC) were used. For the device, a step-through type passive avoidance apparatus (made by Ohara Medical Co., Ltd.) consisting of two […] and dark rooms was used. In the acquisition trial, mouse was placed in the light room and, 10 seconds later, the partitive guillotine door was opened. As soon as the mouse moved into the dark room, the guillotine door was closed and electric shock of 41 to 45 V was given for 1 second through the metal grid bars of the floor. The retention trial was conducted 24 hours later since then. […] The induction of amnesia was performed by fixing a mouse at prone position without anesthetization at 20 minutes before learning acquisition trial and injecting pirenzepine (10 μg/2 μl/mouse bilaterally into cerebral ventricles using a microsyringe. Moreover, a group not to administered with pirenzepine before acquisition trial (non-amnesia comparison group) was also provided. The mice were made to be 12 to 21 animals per group and the testing compound was administered orally at 30 or 60 minutes before acquisition trial. The improvement rate was calculate according to following equation and the results are shown in Table 5 (refer to: M. P. Callfield et at, J. Pharm. Pharmacol. 1983, 35, 131-132). [formula]
The extension of the reaction latency with compound therefore means the improved amnesia.

[2] = molecular target: T1, M2 type muscarinic cholinergic receptor (Rattus norvegicus, UniProt P10980); test: Radioligand binding to M2 type muscarinic cholinergic receptor ([^3 H]-quinuclidyl benzoate); conditions: rat brain stem crude synaptic membrane, [^3 H]-QNB 0.1 nM
T1 construct: crude synaptic membrane specimen was prepared from the brain stem (medulla oblongata-pons) of rat; from tissue; host or cells: rat brain stem (medulla oblongata-pons), crude synaptic membranes
T1 sequence (P10980 1-466): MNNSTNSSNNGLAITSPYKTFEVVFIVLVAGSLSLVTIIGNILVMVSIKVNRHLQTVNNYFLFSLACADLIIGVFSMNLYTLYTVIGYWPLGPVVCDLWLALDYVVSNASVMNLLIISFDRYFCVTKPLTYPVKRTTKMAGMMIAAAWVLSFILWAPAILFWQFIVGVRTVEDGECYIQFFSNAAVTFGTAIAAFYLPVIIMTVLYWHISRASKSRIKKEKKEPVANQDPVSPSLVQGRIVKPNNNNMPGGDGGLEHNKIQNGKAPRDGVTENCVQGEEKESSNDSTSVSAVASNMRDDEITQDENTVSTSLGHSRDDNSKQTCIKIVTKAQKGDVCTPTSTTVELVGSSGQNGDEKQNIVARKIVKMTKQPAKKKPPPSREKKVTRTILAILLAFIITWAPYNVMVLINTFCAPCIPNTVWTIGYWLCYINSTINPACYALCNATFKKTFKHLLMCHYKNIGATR

[3] = system: Std:ddY strain male mice; test: In vivo toxicity test, oral administration; conditions: for common symptoms and death / Convulsion (animals affected) / Death (animals) / dose at which convulsion was observed / dose at which death was observed: 3 days
Method: For the experiment animals, 4 animals per group of Std:ddY strain male mice with body weightOf 26 to 30 g (age in week: 5) (Nippon SLC) were used. The testing compound was suspended into 5 % solution of arabic gum and administered orally. The common symptoms and death caused with compound were recorded for 3 days after administration.

[4] = molecular target: T2, M1 type muscarinic cholinergic receptor (Rattus norvegicus, UniProt P08482); test: Radioligand binding to M1 type muscarinic cholinergic receptor ([^3 H]-pirenzepine); conditions: for IC50: rat brain (except cerebellum and brain stem) crude synaptic membrane, [^3 H]-PZ 1 nM, 60 minutes, 25 °C
T2 construct: crude synaptic membrane specimen prepared from all brains (except cerebellum and brain stem) of rat; from tissue; host or cells: rat brain without cerebellum and brain stem, crude synaptic membranes
T2 sequence (P08482 1-460): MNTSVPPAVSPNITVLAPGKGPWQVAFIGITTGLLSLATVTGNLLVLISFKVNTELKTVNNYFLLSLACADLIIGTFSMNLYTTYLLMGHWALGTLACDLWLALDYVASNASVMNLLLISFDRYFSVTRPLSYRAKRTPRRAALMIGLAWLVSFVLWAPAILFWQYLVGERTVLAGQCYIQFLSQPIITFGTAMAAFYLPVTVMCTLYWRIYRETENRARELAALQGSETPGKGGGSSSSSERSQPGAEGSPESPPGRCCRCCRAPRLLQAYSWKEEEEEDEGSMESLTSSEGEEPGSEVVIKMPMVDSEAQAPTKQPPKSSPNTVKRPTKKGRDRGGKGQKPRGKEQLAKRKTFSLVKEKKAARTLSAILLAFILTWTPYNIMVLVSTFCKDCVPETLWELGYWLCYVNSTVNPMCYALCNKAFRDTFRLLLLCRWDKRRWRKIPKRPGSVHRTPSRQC
Method: 1) Radioligand binding experiment to M1 type muscarinic cholinergic receptor
Method: To a crude synaptic membrane specimen prepared from all brains (except cerebellum and brain stem) of rat, [^3 H]-pirenzepine ([^3 H]-PZ, final oncentration: 1 nM) and testing compound were added and the mixture was incubated for 60 minutes at 25 ° C. After stopped the reaction by high-speed suction filtration, the radioactivity on filter was measured with liquid scintillation counter. The specific binding level of [^3 H]-pirenzepine was determined by subtracting the nonspecific binding level in the presence of atropine (1 μM) from total binding level. Putting the [^3 H]-pirenzepine binding in the absence of testing compound on 100, the concentration of compound to decrease by 50 % (IC50 value) was made an index of the binding activity of compound to M1 muscarinic receptor (refer to: J. A. D. M. Toner et al, Life Science, 1987, 40, 1981-1987).

[5] = system: M1 and M2 muscarinic receptors; test: Selectivity to M1 receptor (ratio of IC50 values from the M1 and M2 binding experiments); set-up: species or system rat
Method: 3) Selectivity to M1 receptor
This was determined from the ratio of IC50 values of compound obtained from the binding experiments of M1 and M2 muscarinic receptors. [formula]

Structure (SMILES)	Reaction latency Mean ± S.E. ([1]; 3 mg/kg) [s]	Improvement rate ([1]; 3 mg/kg) [%]	Reaction latency Mean ± S.E. ([1]; 10 mg/kg) [s]	Improvement rate ([1]; 10 mg/kg) [%]	IC50 [2] [nM]	common symptoms (in words) [3]	common symptoms and death ([3]; 300 mg/kg)	dose at which convulsion was observed [3] [mg/kg]	dose at which death was observed [3] [mg/kg]	IC50 [4] [nM]	Reaction latency Mean ± S.E. ([1]; 30 mg/kg) [s]	Improvement rate ([1]; 30 mg/kg) [%]	also measured
O=C1N(c2ccc(F)cc2)CCN1C1CCCN(Cc2ccccc2)C1 (racemic) [Referential example 8, (±)-1-(4-fluorophenyl)-3-[3-(1-phenylmethyl)piperidyl]-2-imidazolidinone]	55.1 ± 20.0	-20.7	153.7 ± 27.6	33.2	1090	convulsive actions were seen	None	600	1200	80			Convulsion (animals affected) ([3]; 600 mg/kg): 3/4; Death (animals) ([3]; 1200 mg/kg): 4/4
O=C1N(c2ccc(F)cc2)CCN1[C@@H]1CCCN(Cc2ccccc2)C1 [Example 1, (R)-1-(4-florophenyl)-3-[3-(1-phenylmethyl)piperidyl]-2-imidazolidinone]	91.5 ± 21.4	34.3	133.0 ± 29.3	77.9	500		None			30	166.9 ± 40.2	113.6	improvement effect on the amnesia / disturbance of learning (in words) ([1]; listed as R form): could be recognized only for R form with significant difference; improvement effect on the amnesia / disturbance of learning (in words) ([1]; listed as R isomer): very excellent improvement effect on the amnesia; selectivity to M1 receptor (in words) ([5]; M1 versus M2 receptor): far higher selectivity to M1 receptor than to M2 receptor; IC50 (M2)/IC50 (M1) ([5]; ratio of IC50 values, selectivity to M1 receptor): 16.7; common symptoms and death ([3]; 600 mg/kg): None; common symptoms and death ([3]; 1200 mg/kg): None; common symptoms and death ([3]; 1200 mg/kg, listed as R form): problems did not arise at any rate; common symptoms and death ([3]; 1200 mg/kg, listed as compound of the invention): such symptom was not caused even at 1200 mg/kg; affinity to the central M1 muscarinic receptor (in words) [4]: patent affinity to the central M1 muscarinic receptor; in vitro muscarine (M1) activity / affinity relative to S form (Referential example 9) ([4]; compared with S isomer): about 120 times; in vitro muscarine (M1) activity / affinity relative to racemic form (Referential example 8) ([4]; compared with racemic form): about 3 times
O=C1N(c2ccc(F)cc2)CCN1[C@H]1CCCN(Cc2ccccc2)C1 [Referential example 9, (S)-1-(4-fluorophenyl)-3-[3-(1-phenylmethyl)piperidyl]-2-imidazolidinone]	63.3 ± 32.1	-23.5	61.5 ± 26.5	-25.0	> 10000	convulsive actions were seen		≥ 300	≥ 300	3700	113.2 ± 36.2	18.1	Convulsion (animals affected) ([3]; 300 mg/kg): 2/4; Death (animals) ([3]; 300 mg/kg): 1/4; Death (animals) ([3]; 600 mg/kg): 4/4
